Source: ChEMBL document CHEMBL4387705, “Synthesis of new arylsulfonylspiroimidazolidine-2',4'-diones and study of their effect on stimulation of insulin release from MIN6 cell line, inhibition of human aldose reductase, sorbitol accumulations in various tissues and oxidative stress” (Eur J Med Chem, 2019)

Assays:
[1] = Antioxidant activity assessed as DPPH radical scavenging activity at 10 uM incubated for 30 mins under dark condition by spectrophotometry; type: functional
[2] = Antioxidant activity assessed as DPPH radical scavenging activity at 50 uM incubated for 30 mins under dark condition by spectrophotometry; type: functional
[3] = Antioxidant activity assessed as DPPH radical scavenging activity at 100 uM incubated for 30 mins under dark condition by spectrophotometry; type: functional
MIN6 [4] = test: Cytotoxicity against mouse MIN6 cells assessed as reduction in cell viability up to 200 uM incubated for 24 hrs by MTT assay; type: cell-based; conditions: min6, 24 h
[5] = Cytotoxicity against mouse MIN6 cells assessed as cell viability at 400 uM incubated for 24 hrs by MTT assay; type: cell-based; conditions: read-out: Activity
MIN6 [6] = test: Antidiabetic activity in mouse MIN6 cells after 35 passages assessed as increase in insulin secretion at 100 uM in presence of 25 mM glucose by ELISA relative to control; type: functional
[7] = target: Aldo-keto reductase family 1 member B1 (Rattus norvegicus) (UniProt P07943); test: (§1) Inhibition of ALR2 in rat erythrocytes assessed as reduction in sorbitol accumulation incubated for 3 hrs in presence of 28 mM glucose by gas chromatographic analysis relative to control; type: cell-based
[8] = target: Aldo-keto reductase family 1 member B1 (Rattus norvegicus) (UniProt P07943); test: (§2) Inhibition of ALR2 in rat sciatic nerve assessed as reduction in sorbitol accumulation incubated for 3 hrs in presence of 28 mM glucose by gas chromatographic analysis
[9] = target: Aldo-keto reductase family 1 member B1 (Rattus norvegicus) (UniProt P07943); test: (§3) Inhibition of ALR2 in rat lens assessed as reduction in sorbitol accumulation incubated for 3 hrs in presence of 28 mM glucose by gas chromatographic analysis relative to control
[10] = Cytotoxicity against HEK293 cells assessed as reduction in cell viability at 25 uM incubated for 48 hrs by MTT assay relative to control; type: cell-based; conditions: human, read-out: INH
[11] = Cytotoxicity against HEK293 cells assessed as reduction in cell viability at 50 uM incubated for 48 hrs by MTT assay relative to control; type: cell-based; conditions: human, read-out: INH
[12] = Cytotoxicity against HEK293 cells assessed as reduction in cell viability at 100 uM incubated for 48 hrs by MTT assay relative to control; type: cell-based; conditions: human, read-out: INH
[13] = Cytotoxicity against HEK293 cells assessed as reduction in cell viability at 200 uM incubated for 48 hrs by MTT assay relative to control; type: cell-based; conditions: human, read-out: INH
MIN6 [14] = test: Effect on cell morphology in mouse MIN6 cells assessed as cell viability up to 400 uM incubated for 24 hrs; type: cell-based; conditions: min6, 24 h
[15] = target: Aldo-keto reductase family 1 member B1 (Homo sapiens, UniProt P15121); test: Inhibition of human recombinant ALR2 expressed in Escherichia coli using DL-glyceraldehyde as substrate and NADPH preincubated for 5 mins followed by substrate addition and measured after 30 mins at 2 mins interval by spectrophotometry relative to control
[16] = target: T1, Aldo-keto reductase family 1 member B1 (Rattus norvegicus, UniProt P07943); test: as §1; type: cell-based
[17] = target: T1, Aldo-keto reductase family 1 member B1; test: as §2
[18] = target: T1, Aldo-keto reductase family 1 member B1; test: as §3
MIN6 [19] = test: Antidiabetic activity in mouse MIN6 cells after 83 passages assessed as increase in insulin secretion at 100 uM in presence of 25 mM glucose by ELISA relative to control; type: functional

Row | SMILES | inhibition [1] | inhibition [2] | inhibition [3] | Activity (MIN6 [4]) | viability at 24 h, 400 µM [5] | Activity (MIN6 [6]) | inhibition [7] | inhibition [8] | inhibition [9] | cytotoxicity at 48 h, 25 µM [10] | cytotoxicity at 48 h, 50 µM [11] | cytotoxicity at 48 h, 100 µM [12] | cytotoxicity at 48 h, 200 µM [13] | Activity (MIN6 [14]) | IC50 [15] | IC50 [16] | IC50 [17] | IC50 [18] | Activity (MIN6 [19])
1 | Cc1c(C)c2c(c(C)c1O)CCC(C)(C(=O)O)O2 (stereo unspecified) | 82.5% | 84.5% | 94.2% | – | – | – | – | – | – | – | – | – | – | – | – | – | – | – | –
2 | O=C1NC2(CCCc3ccccc32)C(=O)N1S(=O)(=O)c1ccc([N+](=O)[O-])cc1 (stereo unspecified) | 44.8% | 67.3% | 77.6% | Non-Toxic | 81% | 121% | Dose-dependent effect | Dose-dependent effect | Dose-dependent effect | 9.37% | 14.2% | 19.2% | 28.4% | Non-Toxic | – | – | – | – | –
3 | CC(=O)c1ccc(S(=O)(=O)N2C(=O)NC3(CCCc4ccccc43)C2=O)cc1 (stereo unspecified) | 25.1% | 39.8% | 75.3% | Non-Toxic | 81% | 118% | Dose-dependent effect | Dose-dependent effect | Dose-dependent effect | 17.5% | 24.4% | 42% | 55.5% | Non-Toxic | 37.7 µM | 25.7 µM | 22.7 µM | 34.8 µM | –
4 | O=C1NC2(CCCc3ccccc32)C(=O)N1S(=O)(=O)c1ccc(Cl)cc1 (stereo unspecified) | – | – | 8.44% | Non-Toxic | 81% | 145% | Dose-dependent effect | Dose-dependent effect | Dose-dependent effect | 12.7% | 16.1% | 18.2% | 23.3% | Non-Toxic | 40.2 µM | – | – | – | –
5 | O=C1NC(=O)C2(CCCc3ccccc32)N1S(=O)(=O)c1ccc([N+](=O)[O-])cc1 (stereo unspecified) | 70.5% | 77.3% | 87.6% | Non-Toxic | 81% | 145% | Dose-dependent effect | Dose-dependent effect | Dose-dependent effect | 23.6% | 36% | 39.2% | 53.4% | Non-Toxic | 34.5 µM | – | – | – | –
6 | O=C1NC(=O)C2(CCCc3ccccc32)N1S(=O)(=O)c1ccc(Cl)cc1 (stereo unspecified) | – | – | 8.48% | Non-Toxic | 81% | 140% | Dose-dependent effect | Dose-dependent effect | Dose-dependent effect | 10.8% | 12.6% | 19.9% | 33.3% | Non-Toxic | 6.15 µM | 3.8 µM | 4.34 µM | 3.86 µM | 159%
7 | CC(/C=C1\SC(=S)N(CC(=O)O)C1=O)=C\c1ccccc1 | – | – | – | – | – | – | – | – | – | 10.3% | 12% | 13.7% | 18.3% | – | – | – | – | – | –
8 | O=C1NC(=O)C2(CCCc3ccccc32)N1S(=O)(=O)c1ccc(F)cc1 (stereo unspecified) | – | – | 2.52% | Non-Toxic | 81% | 250% | Dose-dependent effect | Dose-dependent effect | Dose-dependent effect | 11.9% | 18.9% | 25.1% | 36.3% | Non-Toxic | 5.84 µM | 5.49 µM | 7.37 µM | 6.25 µM | 164%
9 | Cc1ccc(S(=O)(=O)N2C(=O)NC3(CCCc4ccccc43)C2=O)cc1 (stereo unspecified) | 23.2% | 37.3% | 42.4% | Non-Toxic | 81% | 275% | Dose-dependent effect | Dose-dependent effect | Dose-dependent effect | 18.2% | 19.1% | 20.2% | 21.5% | Non-Toxic | 1.8 µM | 1.7 µM | 1.72 µM | 1.56 µM | 177%
10 | O=C1NC2(CCCc3ccccc32)C(=O)N1S(=O)(=O)c1ccc(F)cc1 (stereo unspecified) | – | – | 2.51% | Non-Toxic | 81% | 111% | Dose-dependent effect | Dose-dependent effect | Dose-dependent effect | 11.4% | 26.1% | 31.9% | 36.5% | Non-Toxic | – | – | – | – | –
11 | Cc1ccc(S(=O)(=O)N2C(=O)NC(=O)C23CCCc2ccccc23)cc1 (stereo unspecified) | 33.3% | 37.5% | 42.4% | Non-Toxic | 81% | 308% | Dose-dependent effect | Dose-dependent effect | Dose-dependent effect | 13.9% | 22.9% | 22.6% | 32% | Non-Toxic | 5.02 µM | 1.34 µM | 1.33 µM | 1.15 µM | 222%
